In BindingDB's records for patent US20250368640 (Biofront, 2025) one finds IC50 data, which are given here for 2 compounds.

The target of assay [1] is Mitogen-activated protein kinase kinase kinase kinase 1 (Homo sapiens, UniProt Q92918). As to the kind of experiment: HPK1 Enzyme Inhibition Assay. The protocol:
The compound was dissolved in 100% DMSO at the concentration of 10 mM. The HPK1 protein was purchased from Signal Chem (M23-11G-10). 2.5 μL per well of 2×HPK1 protein was added to assay plate containing the test compound, centrifuged at 1500 rpm for 1 minute, and then incubated at 25° C. for 60 minutes. MBP protein was purchased from Signal Chem (M42-51N) and ATP was purchased from Promega (V9102). The two were added 2.5 μL per well mixture of 2×MBP (0.2 ug/ul) and ATP (20 μM), centrifuged at 1500 rpm for 1 minute, then incubated at 25° C. for 60 minutes. Then added 5 μL of ADP-Glo from Promega (V9102) to the assay plate and depleted the unconsumed ATP for 60 minutes. Then centrifuged at 1500 rpm for 1 minute and incubated at 25° C. for 60 minutes. Finally, 10 μL of the kinase assay reagent from Promega (V9102) was added to the assay plate to convert ADP to ATP, centrifuged at 1500 rpm for 1 minute, incubate at 25° C. for 40 minutes. After 40 minutes incubation, the […] was determined.

The target of assay [2] is T1, Aurora kinase A (Homo sapiens, UniProt O14965).
T1 sequence (O14965 whole entry): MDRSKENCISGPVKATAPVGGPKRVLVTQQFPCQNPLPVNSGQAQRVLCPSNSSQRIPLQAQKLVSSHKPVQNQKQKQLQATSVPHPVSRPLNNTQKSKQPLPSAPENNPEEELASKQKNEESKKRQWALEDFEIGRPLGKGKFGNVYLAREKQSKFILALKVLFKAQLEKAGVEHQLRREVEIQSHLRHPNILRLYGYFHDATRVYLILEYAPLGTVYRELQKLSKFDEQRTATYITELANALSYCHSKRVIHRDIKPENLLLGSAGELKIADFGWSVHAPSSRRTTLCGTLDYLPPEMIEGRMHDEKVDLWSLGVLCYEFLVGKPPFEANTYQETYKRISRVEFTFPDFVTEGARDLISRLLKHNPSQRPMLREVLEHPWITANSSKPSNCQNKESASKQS
Put plainly: Aurora A Enzyme Inhibition Assay. The protocol:
The compound was dissolved in 100% DMSO at the concentration of 10 mM. The Aurora A protein was purchased from Carna (05-101). 10 μL per well of 2.5×Aurora A protein was added to assay plate containing the test compound, centrifuged at 1000 rpm for 1 minute, and then incubated at 25° C. for 10 minutes. Peptide 21 was purchased from GL Biochem (116370) and ATP was purchased from Promega (V9102). The two were added 15 μL per well mixture of 1.67× peptide 21 (final conc. is 3 μM) and ATP (final conc. is 14.58 μM), centrifuged at 1000 rpm for 1 minute, then incubated at 25° C. for 40 minutes. Then added 30 μL of stop buffer (100 mM HEPES pH7.5, 0.015% Brij-35, 0.2% Coating Reagent 3, 50 mM EDTA) to the assay plate and centrifuged at 1000 rpm for 1 minute. the product was determined.

Sequence of Mitogen-activated protein kinase kinase kinase kinase 1 (Q92918 whole entry): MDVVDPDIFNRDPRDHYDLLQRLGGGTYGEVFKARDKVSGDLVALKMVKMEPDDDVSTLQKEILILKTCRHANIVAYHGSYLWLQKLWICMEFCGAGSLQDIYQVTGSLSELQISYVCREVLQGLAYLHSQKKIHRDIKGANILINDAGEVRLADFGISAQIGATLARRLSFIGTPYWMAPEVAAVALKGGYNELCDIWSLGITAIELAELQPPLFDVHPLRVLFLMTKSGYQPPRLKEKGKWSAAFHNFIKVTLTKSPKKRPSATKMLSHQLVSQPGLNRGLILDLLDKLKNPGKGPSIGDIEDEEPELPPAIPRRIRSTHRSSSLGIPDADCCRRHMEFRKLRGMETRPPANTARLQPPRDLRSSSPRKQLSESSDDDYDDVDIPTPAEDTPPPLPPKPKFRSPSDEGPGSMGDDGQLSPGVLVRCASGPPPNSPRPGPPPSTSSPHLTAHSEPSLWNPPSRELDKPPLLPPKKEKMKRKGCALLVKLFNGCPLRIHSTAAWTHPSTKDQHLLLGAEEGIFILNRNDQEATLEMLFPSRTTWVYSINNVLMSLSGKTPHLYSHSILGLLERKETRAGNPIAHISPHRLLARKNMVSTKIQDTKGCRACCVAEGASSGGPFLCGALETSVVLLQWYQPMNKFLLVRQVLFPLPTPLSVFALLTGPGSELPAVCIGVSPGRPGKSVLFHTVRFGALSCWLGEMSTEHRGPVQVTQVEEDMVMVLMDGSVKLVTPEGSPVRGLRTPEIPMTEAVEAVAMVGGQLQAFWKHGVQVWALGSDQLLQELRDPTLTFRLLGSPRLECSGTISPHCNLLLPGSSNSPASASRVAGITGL

For orientation: IC50 means the concentration that gives 50% inhibition. A higher IC50 goes with weaker potency in that assay. As for `CCc1c[nH]c2ncc(-c3cccc(N4CCCN(CCN5CC(c6ccc7c(c6)CN(C6CCC(=O)NC6=O)C7=O)C5)C4=O)c3)c(Cl)c12` (centres undefined), the figures for the IC50 in assay [1] and in assay [2] were 1.1 nM and 10.1 nM, respectively.

With `CCc1c[nH]c2ncc(-c3cccc(N4CCCN(CCN5CC(c6ccc7c(c6)C(=O)N(C6CCC(=O)NC6=O)C7)C5)C4=O)c3)c(Cl)c12` (centres undefined) [US20250368640, Example 1], the IC50 in assay [1] was 0.76 nM; in assay [2] it was 14.3 nM.
